Consider 22 compounds from patent US20240228488A1 (TAKEDA PHARMACEUTICAL COMPANY LIMITED, priority 2021, published 2024).

Molecules are shown by their SMILES. Bounds are passed on as bounds.

The target in this assay is human activated kallikrein enzyme (Homo sapiens, UniProt P03952). The assay can be described thus: Plasma kallikrein inhibition, fluorogenic PFR-AMC substrate, 500 pM activated kallikrein format. Particulars: 500 pM activated kallikrein, 300 uM PFR-AMC, 30 min preincubation, 10 min reaction; read-out: Primary Dose Response Assay: Average EC50. It counts as biochemical. The method, then: Compounds were evaluated for inhibition of the human activated kallikrein enzyme in two formats of an assay employing a fluorogenic peptide substrate. In one assay format, the concentrations of reagents were as follows: 20 mM Tris pH 7.5, 1 mM EDTA, 150 mM sodium chloride, 0.1% PEG-400, 0.1% Triton X-100, 500 pM activated kallikrein enzyme, 300 uM Pro-Phe-Arg-7-amido-4-methylcoumarin (PFR-AMC) substrate. Prior to reaction initiation with substrate, enzyme and inhibitors were preincubated for 30 min at room temperature. After initiation with substrate, reactions were incubated for 10 min at room temperature and fluorescence emission at 460 nm from 380 nm excitation measured with a microplate reader. In another assay format, the concentrations of reagents were as follows: 20 mM Tris pH 7.5, 1 mM EDTA, 150 mM sodium chloride, 0.1% PEG-400, 0.1% Triton X-100, 5 pM activated kallikrein enzyme, 300 uM PFR-AMC substrate. Prior to reaction initiation with substrate, enzyme and inhibitors were preincubated for 30 min at room temperature. After initiation with substrate, reactions were incubated for 18 hr at room temperature and fluorescence emission at 460 nm from 380 nm excitation measured with a microplate reader.
human activated kallikrein enzyme, sequence (P03952 391-638 limits assumed): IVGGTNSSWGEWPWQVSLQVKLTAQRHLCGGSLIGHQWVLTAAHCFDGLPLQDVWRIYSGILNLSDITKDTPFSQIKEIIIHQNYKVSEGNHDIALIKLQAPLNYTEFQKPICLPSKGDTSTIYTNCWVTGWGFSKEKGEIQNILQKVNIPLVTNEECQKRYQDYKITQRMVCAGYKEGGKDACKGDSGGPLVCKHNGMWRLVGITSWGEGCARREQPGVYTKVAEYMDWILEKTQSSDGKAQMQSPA
human activated kallikrein enzyme, sequence (P03952 20-390 partner limits assumed): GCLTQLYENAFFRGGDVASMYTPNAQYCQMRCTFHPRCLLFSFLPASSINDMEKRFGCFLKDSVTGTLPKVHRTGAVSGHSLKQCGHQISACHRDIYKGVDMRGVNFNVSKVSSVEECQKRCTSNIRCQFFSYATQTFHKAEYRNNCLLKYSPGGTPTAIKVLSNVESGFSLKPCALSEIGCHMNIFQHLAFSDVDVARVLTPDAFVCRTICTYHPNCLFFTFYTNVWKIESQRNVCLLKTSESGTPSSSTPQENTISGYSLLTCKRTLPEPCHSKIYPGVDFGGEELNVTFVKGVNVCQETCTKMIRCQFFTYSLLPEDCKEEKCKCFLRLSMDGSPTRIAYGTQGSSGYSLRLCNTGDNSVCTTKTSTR
Table 49 provides the results of the assay in the format with 500 pM activated kallikrein assay. For the compounds listed in Table 49, the EC50 values are reported according to the following ranges: A≤1.0 nM; 1.0 nM<B≤10 nM; 10 nM<C≤100 nM; 100 nM<D≤1000 nM; 1000 nM<E≤6000 nM; 6000 nM<F.
Table 51 provides comparative plasma kallikrein inhibition potency in the assay format with 500 pM activated kallikrein assay (described in detail in a preceding example). For the compounds listed in Table 51, the EC50 values are reported according to the following ranges: A≤1.0 nM; 1.0 nM<B≤10 nM; 10 nM<C≤100 nM; 100 nM<D≤1000 nM; 1000 nM<E≤6000 nM; 6000 nM<F.
Usually EC50 stands for the concentration giving half of the maximal effect. For the compound `O=C(Nc1cc(NCc2cn3cc(C4CC4)cc(N4CCOCC4=O)c3n2)ncn1)[C@H]1C[C@@H]1c1cccc(Cl)c1` (racemic) [Example 74, rac-(1S*,2S*)-2-(3-chlorophenyl)-N-(6-(((6-cyclopropyl-8-(3-oxomorpholino)imidazo[1,2-a]pyridin-2-yl)methyl)amino)pyrimidin-4-yl)cyclopropane-1-carboxamide], the EC50 is < 1 nM.

For the compound `O=C(Nc1cncnc1NCc1cn2cc(C3CC3)ccc2n1)[C@H]1C[C@@H]1c1cccc(Cl)c1` (racemic) [Example 78, rac-(1S*,2S*)-2-(3-chlorophenyl)-N-(4-(((6-cyclopropylimidazo[1,2-a]pyridin-2-yl)methyl)amino)pyrimidin-5-yl)cyclopropane-1-carboxamide], the EC50 is 100 to 1000 nM.

Take `O=C(Nc1cc(NCc2cn3cc(C4CC4)ccc3n2)c(F)cn1)[C@H]1C[C@@H]1c1cccc(Cl)c1` (racemic) [Example 86, rac-(1S*,2S*)-2-(3-chlorophenyl)-N-(4-(((6-cyclopropylimidazo[1,2-a]pyridin-2-yl)methyl)amino)-5-fluoropyridin-2-yl)cyclopropane-1-carboxamide]: the EC50 is 100 to 1000 nM.

Consider `O=C(Nc1cc(NCc2cn3cc(C4CC4)cc(CO)c3n2)ccn1)[C@H]1C[C@@H]1c1cccc(Cl)c1` (racemic) [Example 98, rac-(1S*,2S*)-2-(3-chlorophenyl)-N-(4-(((6-cyclopropyl-8-(hydroxymethyl)imidazo[1,2-a]pyridin-2-yl)methyl)amino)pyridin-2-yl)cyclopropane-1-carboxamide], for which the concentration giving a half-maximal response (EC50) is < 1 nM.

On to `N#Cc1ccc(Cl)cc1[C@@H]1C[C@H]1C(=O)Nc1cc(NCc2cn3cc(C4CC4)ccc3n2)cnn1` (racemic) [Example 102, rac-(1S*,2S*)-2-(5-chloro-2-cyanophenyl)-N-(5-(((6-cyclopropylimidazo[1,2-a]pyridin-2-yl)methyl)amino)pyridazin-3-yl)cyclopropane-1-carboxamide], for which the EC50 is 1 to 10 nM.

For the compound `O=C(Nc1cc(OCc2cn3cc(C4CC4)ccc3n2)cnn1)[C@H]1C[C@@H]1c1cccc(Cl)c1` (racemic) [Example 103, rac-(1S*,2S*)-2-(3-chlorophenyl)-N-(5-((6-cyclopropylimidazo[1,2-a]pyridin-2-yl)methoxy)pyridazin-3-yl)cyclopropane-1-carboxamide], the EC50 lay within 10 to 100 nM.

With `O=C(Nc1cc(OCc2cn3cc(C4CC4)ccc3n2)ncn1)[C@H]1C[C@@H]1c1cccc(Cl)c1` (racemic) [Example 104, rac-(1S*,2S*)-2-(3-chlorophenyl)-N-(6-((6-cyclopropylimidazo[1,2-a]pyridin-2-yl)methoxy)pyrimidin-4-yl)cyclopropane-1-carboxamide], the EC50 lay in the range of 100 to 1000 nM.

Turning to `O=C(Nc1cc(NCc2cn3cc(C4CC4)ccc3n2)nc(N2CCCC2)n1)[C@@H]1C[C@H]1c1cccc(Cl)c1` (racemic) [Example 105, rac-(1S*,2S*)-2-(3-chlorophenyl)-N-(6-(((6-cyclopropylimidazo[1,2-a]pyridin-2-yl)methyl)amino)-2-(pyrrolidin-1-yl)pyrimidin-4-yl)cyclopropane-1-carboxamide], the concentration for a half-maximal effect (EC50) fell in the range of 100 to 1000 nM.

For `CSc1nc(NCc2cn3cc(C4CC4)ccc3n2)cc(NC(=O)[C@@H]2C[C@H]2c2cccc(Cl)c2)n1` (racemic) [Example 106, rac-(1S*,2S*)-2-(3-chlorophenyl)-N-(6-(((6-cyclopropylimidazo[1,2-a]pyridin-2-yl)methyl)amino)-2-(methylthio)pyrimidin-4-yl)cyclopropane-1-carboxamide], the EC50 fell in the range of 100 to 1000 nM.

Regarding `COc1nc(NCc2cn3cc(C4CC4)ccc3n2)cc(NC(=O)[C@@H]2C[C@H]2c2cccc(Cl)c2)n1` (racemic) [Example 107, rac-(1S*,2S*)-2-(3-chlorophenyl)-N-(6-(((6-cyclopropylimidazo[1,2-a]pyridin-2-yl)methyl)amino)-2-methoxypyrimidin-4-yl)cyclopropane-1-carboxamide], the EC50 was 10 to 100 nM.

In the case of `CS(=O)(=O)c1nc(NCc2cn3cc(C4CC4)ccc3n2)cc(NC(=O)[C@H]2C[C@@H]2c2cccc(Cl)c2)n1` (racemic) [Example 110, rac-(1S*,2S*)-2-(3-chlorophenyl)-N-(6-(((6-cyclopropylimidazo[1,2-a]pyridin-2-yl)methyl)amino)-2-(methylsulfonyl)pyrimidin-4-yl)cyclopropane-1-carboxamide], the EC50 fell in the range of 10 to 100 nM.

`CCOC(=O)c1nc(NCc2cn3cc(C4CC4)ccc3n2)cc(NC(=O)[C@H]2C[C@@H]2c2cccc(Cl)c2)n1` (racemic) [Example 111, rac-ethyl 4-((1S*,2S*)-2-(3-chlorophenyl)cyclopropane-1-carboxamido)-6-(((6-cyclopropylimidazo[1,2-a]pyridin-2-yl)methyl)amino)pyrimidine-2-carboxylate]: the EC50 lay within 1 to 10 nM.

For the compound `O=C(O)c1nc(NCc2cn3cc(C4CC4)ccc3n2)cc(NC(=O)[C@H]2C[C@@H]2c2cccc(Cl)c2)n1` (racemic) [Example 112, rac-4-((1S*,2S*)-2-(3-chlorophenyl)cyclopropane-1-carboxamido)-6-(((6-cyclopropylimidazo[1,2-a]pyridin-2-yl)methyl)amino)pyrimidine-2-carboxylic acid], the concentration for a half-maximal effect (EC50) fell in the range of 1 to 10 nM.

With `O=C(Nc1cc(NCc2cn3cc(C4CC4)ccc3n2)ccn1)[C@@H]1C[C@H]1c1cccc(Cl)c1` (racemic) [Example 115, rac-(1S*,2S*)-2-(3-chlorophenyl)-N-(4-(((6-cyclopropylimidazo[1,2-a]pyridin-2-yl)methyl)amino)pyridin-2-yl)cyclopropane-1-carboxamide], the EC50 lay within 1 to 10 nM.

As for `N#Cc1cc(C2CC2)cn2cc(CNc3ccnc(NC(=O)[C@@H]4C[C@H]4c4cccc(Cl)c4)c3)nc12` (racemic) [Example 119, rac-(1S*,2S*)-2-(3-chlorophenyl)-N-(4-(((8-cyano-6-cyclopropylimidazo[1,2-a]pyridin-2-yl)methyl)amino)pyridin-2-yl)cyclopropane-1-carboxamide], the EC50 lay within 1 to 10 nM.

Take `COc1cc([C@H]2C[C@@H]2C(=O)Nc2cc(NCc3cn4cc(C5CC5)ccc4n3)ncn2)cc(N)n1` (racemic) [Example 277, rac-(1S*,2S*)-2-(2-amino-6-methoxypyridin-4-yl)-N-(6-(((6-cyclopropylimidazo[1,2-a]pyridin-2-yl)methyl)amino)pyrimidin-4-yl)cyclopropane-1-carboxamide]: the EC50 is 100 to 1000 nM.

Regarding `Nc1ccc([C@H]2C[C@@H]2C(=O)Nc2cc(NCc3cn4cc(C5CC5)ccc4n3)ncn2)cc1Cl` (racemic) [Example 278, rac-(1S*,2S*)-2-(4-amino-3-chlorophenyl)-N-(6-(((6-cyclopropylimidazo[1,2-a]pyridin-2-yl)methyl)amino)pyrimidin-4-yl)cyclopropane-1-carboxamide], the EC50 was in the range of 100 to 1000 nM.

In the case of `Nc1ccc(Cl)cc1[C@H]1C[C@@H]1C(=O)Nc1cc(NCc2cn3cc(C4CC4)ccc3n2)ncn1` (racemic) [Example 279, rac-(1S*,2S*)-2-(2-amino-5-chlorophenyl)-N-(6-(((6-cyclopropylimidazo[1,2-a]pyridin-2-yl)methyl)amino)pyrimidin-4-yl)cyclopropane-1-carboxamide], the EC50 lay in the range of 100 to 1000 nM.

Consider `Nc1c(Cl)cccc1[C@H]1C[C@@H]1C(=O)Nc1cc(NCc2cn3cc(C4CC4)ccc3n2)ncn1` (racemic) [Example 280, rac-(1S*,2S*)-2-(2-amino-3-chlorophenyl)-N-(6-(((6-cyclopropylimidazo[1,2-a]pyridin-2-yl)methyl)amino)pyrimidin-4-yl)cyclopropane-1-carboxamide], for which the EC50 was > 6000 nM.

As to `COc1cc([C@H]2C[C@@H]2C(=O)Nc2cc(NCc3cn4cc(C5CC5)ccc4n3)ccn2)cc(N)n1` (racemic) [Example 286, rac-(1S*,2S*)-2-(2-amino-6-methoxypyridin-4-yl)-N-(4-(((6-cyclopropylimidazo[1,2-a]pyridin-2-yl)methyl)amino)pyridin-2-yl)cyclopropane-1-carboxamide], the EC50 was 10 to 100 nM.

As to `COCCOc1ccc(Cl)cc1[C@H]1C[C@@H]1C(=O)Nc1cc(NCc2cn3cc(C4CC4)ccc3n2)ncn1` (racemic) [Example 310, rac-(1S*,2S*)-2-(5-chloro-2-(2-methoxyethoxy)phenyl)-N-(6-(((6-cyclopropylimidazo[1,2-a]pyridin-2-yl)methyl)amino)pyrimidin-4-yl)cyclopropane-1-carboxamide], the EC50 lay within 100 to 1000 nM.

As to `O=C(Nc1cc(NCc2cn3cc(C4CC4)ccc3n2)ncn1)[C@H]1C[C@@H]1c1cc(Cl)ccc1OC(F)F` (racemic) [Example 311, rac-(1S*,2S*)-2-(5-chloro-2-(difluoromethoxy)phenyl)-N-(6-(((6-cyclopropylimidazo[1,2-a]pyridin-2-yl)methyl)amino)pyrimidin-4-yl)cyclopropane-1-carboxamide], the EC50 was 10 to 100 nM.
